{
  "source": "paper PMC9423655",
  "about": "“Huntington’s disease phenotypes are improved via mTORC1 modulation by small molecule therapy” (PLoS ONE, 2022)",
  "key": {"N171-82Q HD mice": {"test_system": "N171-82Q HD mice", "assay": "Chronic 6-week treatment: striatal volume and MSN area (DARPP-32 histology)", "assay_type": "in vivo", "conditions": "N171-82Q mice, 160 mg/kg daily 6 weeks", "procedure": "Mice were perfused with PBS, and tissues were fixed in 4% paraformaldehyde for at least 48 hours. Brains were cryoprotected in a 30% sucrose solution for 24 hours and cryosectioned to 40 μm on a Leica SM2010R microtome. Each section through the striatum was collected and floated out in 30% ethylene glycol/15% sucrose solution sequentially in a 12-well plate. Once sections had been placed in each well, deeper sequential sections were added to wells in the same order, leading to each well containing 7 sections, 480 μm apart. Hearts were bisected transversely, and the apical halves were processed and embedded in paraffin. Heart tissue was sectioned to 5 μm on a Microm HM 355S (Thermo) microtome. […]\nStriatal volume were estimated by the Cavalieri method on low-power digital images of DARPP-32-stained sections in ImageJ. A 5000 μm^2 area-per-point grid was superimposed randomly over the image, and number of points overlapping the striatum in each section (5 per animal) was counted. The volume was then calculated using the formula V = ∑p∙t∙A(p), where V = estimated volume, p = points per section, t = space between sections, and A(p) = area-per-point. […]\nAverage MSN area was calculated from high-power digital images of DARPP-32-stained sections in ImageJ. […] At least 700 cells were measured per brain, and the average MSN area was determined per treatment group."}, "mTORC1 pathway in heart": {"test_system": "mTORC1 pathway in heart", "assay": "Chronic 6-week treatment: heart immunoblots", "assay_type": "in vivo", "conditions": "N171-82Q mice, 160 mg/kg daily 6 weeks, 1 hour after dosing", "procedure": "Specific regions of the brain and heart were homogenized using a Next Advance Bullet Blender Storm in Lysis Buffer (Cell lysis buffer: 1% Triton X-100, 50 mM HEPES pH 7.4, 100 mM sodium chloride, 2 mM EDTA, 10 mM Beta-glycerophosphate, 10 mM Sodium pyrophosphate, and 1 protease inhibitor) at 4°C. Lysates were cleared by centrifugation at 13,200 rpm at 4°C for 10 minutes. Equal amounts of total protein from each sample were denatured and, resolved by SDS-PAGE. Membranes were imaged using the LI-COR imaging system. Proteins levels are normalized to tubulin, actin or GAPDH levels and further normalized to vehicle treated mice for each tissue.\nFig 5 Oral dosing with NV-5297 over 6 weeks improves cardiac function and activates the mTORC1 pathway. (A) Representative M-mode echocardiograms from transthoracic echocardiography at 6 weeks and 12 weeks of vehicle and NV-5297 treated N171-82Q males. (B) Heart weight corrected for the animal’s standard length (tibia length) at 12 weeks. (C) Left ventricular measurements obtained by transthoracic echocardiography by deducting the end treatment (12 weeks) from the baseline (6 weeks) measurements. Variation in cardiac output [CO], ejection fraction [EF], fractional shortening [FS], stroke volume (SV) and Heart rate [HR]. (D) Representative immunoblots for normalized phosphorylated S6 (^S240/244pS6), S6, phosphorylated Akt (^S437pAkt), Akt, phosphorylated mTOR (^S2448pmTOR), mTOR, phosphorylated 4E-BP1 (^Thr37/46p4E-BP1), 4E-BP1 and Actin in homogenized heart. (E) Quantification of the immunoblots for homogenized heart isolated 1 hour after oral dosing with NV-5297 (160 mg/kg; n = 14) normalized to loading control levels and further normalized to vehicle (Veh) treated mice (n = 15). Data are presented as mean ± SEM. *P ≤ 0.05, **P ≤ 0.01, ***P ≤ 0.001 (unpaired Kruskal-Wallis test with Dunn’s multiple comparison test [B], unpaired one-tailed Student’s t-tests [C, E pmTOR] with a Welch’s correction [pS6/S6, pmTOR/mTOR] or a Mann-Whitney test [pAkt/Akt, p4E-BP1/4E-BP1])."}},
  "data": [
    {"smiles": "CC(C)(C[C@H](N)C(=O)O)C(F)(F)F", "note": "[NV-5297, (S)-2-amino-5,5,5-trifluoro-4,4-dimethylpentanoic acid]", "values": [
      {"measurement": "medium spiny neuron area", "setting": "N171-82Q HD mice", "result": "no change"},
      {"measurement": "striatal volume relative to vehicle", "setting": "N171-82Q HD mice", "result": "significant increases"},
      {"measurement": "heart p4E-BP1 level versus controls", "setting": "mTORC1 pathway in heart", "result": "elevated"},
      {"measurement": "heart pS6 level versus controls", "setting": "mTORC1 pathway in heart", "result": "elevated"},
      {"measurement": "heart pmTOR level versus controls", "setting": "mTORC1 pathway in heart", "result": "elevated"}
    ]}
  ]
}
